# Data as given in patent US20220348662A1, “USE OF FGFR INHIBITORS IN FGFR-GENETICALLY ALTERED CANCERS TO ENHANCE PATIENT RESPONSE TO IMMUNE CHECKPOINT INHIBITORS IN SEQUENTIAL TREATMENT SETTINGS” (JANSSEN PHARMACEUTICA NV, priority 2019, published 2022).
# Key:
# [1] = test system: CD38+ T cells in peripheral blood; assay: BLC2002 phase 1b immune cell profiling of blood by flow cytometry (T cell activation); assay type: in vivo, human; conditions: FIG. 4c; E8RJ cohort at C1D15, erdafitinib treatment alone (run-in)
# Experimental: Blood for immune cell profiling were collected at four time points (C1D1, C1D15, C2D1 and C3D1) and subjected to flow cytometry analysis on a real time basis. T cell activation is quantified as fold increase in the proportions of 1) CD38+CD3, CD38+CD4, or CD38+CD8 T cells out of lymphocytes or CD3 T cell populations, and 2) CD38+ cells out of CD4+ or CD8+T cell populations, compared to the baseline proportion levels at C1D1.
# Longitudinal blood samples were analyzed from DL2A (E8J cohort: Erda 8 mg+cetrelimab 240 mg), DL2B (E8RJ cohort: Erda 8 mg 28 days run-in +cetrelimab 240 mg), and DL2 (EJ cohort: Erda 8 mg with the potential dose adjustments to 9 mg depending on phosphate levels measured on C1D15+cetrelimab 240 mg).
# [2] = test system: advanced urothelial carcinoma; conditions: luminal 1 subtype compared with other bladder cancer subtypes; cited from earlier work
Compound,proportion of CD38+CD8 T cells compared to baseline C1D1 [1],response rate by bladder cancer molecular subtype [2]
"COc1cc(OC)cc(N(CCNC(C)C)c2ccc3ncc(-c4cnn(C)c4)nc3c2)c1 [erdafitinib, N-(3,5-dimethoxyphenyl)-N′-(1-methylethyl)-N-[3-(1-methyl-1H-pyrazol-4-yl)quinoxalin-6-yl]ethane-1,2-diamine]",dramatically increased,–
atezolizumab: checkpoint inhibitor; antibody that blocks the interaction between PD-1 and PD-L1,–,lowest response rate
nivolumab: checkpoint inhibitor; antibody that blocks the interaction between PD-1 and PD-L1,–,lowest response rate
